In paper PMC8694140, “Synthesis and photobiological applications of naphthalimide–benzothiazole conjugates: cytotoxicity and topoisomerase IIα inhibition” (RSC Advances, 2021):
Like-named read-outs stand apart in the source and are kept apart here.

Columns and labels:
[1] = system: MCF7 (breast) human cancer cell line; assay: MTT cytotoxicity assay, MCF7; assay type: cell-based; conditions: Homo sapiens, MCF7, 48 h
Experimental: (§1) Human malignant cell lines, i.e., MCF7 (breast), HeLa (cervix), and A549 (lung), as well as non-cancerous human cell line Hek293 (kidney), were cultured using the Ham's media or DMEM having 10% FBS, […] streptomycin, 100 U ml^−1 penicillin, and 50 mM glutamine. For seeding of cells, 96 well plates were used, maintaining the density of […] cells per well with the help of DMEM as a media having 10% FBS cells. Then, seeded cells were incubated in an incubator having a 5% CO2 supply at 37 °C. Compounds were added to the wells at 1, 10, and 100 μM concentrations, and cells were incubated for 48 h at 37 °C and then added 10 μl of MTT to each well prepared from 5 mg ml^−1 stock solution using 1 × PBS buffer and were incubated for 4 h at 37 °C in the dark. DMSO (100 μl) was used to dissolve the formazan crystals. To determine the concentration of formazan, the crystal absorbance difference was recorded at 570 nm. The percentage of relative cell toxicity was calculated by using the following eqn (1):1 [drawing 1]

[2] = system: HeLa (cervix) human cancer cell line; assay: MTT cytotoxicity assay, HeLa; assay type: cell-based; conditions: Homo sapiens, 48 h
Experimental: as §1

[3] = biological target: T1, human serum albumin (HSA) (Homo sapiens, UniProt P02768); assay: HSA fluorescence quenching (Stern–Volmer, modified Stern–Volmer, van't Hoff); assay type: binding; conditions: for Kd: read-out: K b (binding constant, modified Stern–Volmer) (converted); for quenching of emission of HSA at 347 nm: HSA 10 μM, compound up to 33 μM, λex 280 nm; for ΔH of HSA binding / ΔS of HSA binding: van't Hoff plot, 298–318 K
Experimental: The binding of compounds to HSA can affect the fluorescence of these fluorophores.[34–36] […] Incremental addition of compounds 12 and 13 (33 μM) led to good quenching (90–95%) of emission of HSA at 347 nm (Fig. 5, S58, and S59 ^†), which indeed indicated the binding of compounds to HSA. Fluorescence quenching data have been analyzed using the Stern–Volmer equation eqn (3)[38] at three different temperatures, i.e., 298 K, […], and 318 K, where Stern–Volmer plots were obtained (Fig. S60 and S61 ^†). Good linearity of plots was observed having a correlation coefficient (R) ≥ 0.9396 throughout all the experiments. The values of the Stern–Volmer quenching constant (KSV), a measure of fluorescence quenching efficiency of the analyte, were calculated from these plots and are reported in Table 2. The fluorescence quenching mechanism, whether dynamic or static quenching, can be investigated using the dependency of KSV values on temperature. […] Thus, the detected quenching in fluorescence of HSA on the addition of compounds 12 and 13 appears as a result of complex formation between compound and HSA. […] Thus, in the present study, the static quenching phenomenon has occurred in the quenching process for represented HSA–compound systems.
To record the emission spectra, a fixed amount of HSA (10 μM) was titrated with increasing concentration of compounds 12 and 13 (33 μM) in phosphate buffer of pH 7.4 at 298 K, 308 K, and 318 K. All spectra were recorded in the range of 200–800 nm at excitation wavelength 280 nm and a constant slit width was used for excitation and emission throughout the experiments.
To determine the quenching constant, following Stern–Volmer eqn (3) was used.3 [drawing 3] where, F0 and F denote the emission intensity of HSA in free form and the presence of compounds 12 and 13, respectively. The plots of F0/F versus [compound] were used to determine the Stern–Volmer quenching constants (KSV) and bimolecular quenching constants (Kq).
Further to determine the binding constants (Kb) and the average number of binding sites (n), the following modified Stern–Volmer eqn (4) was used.4 [drawing 4] where F0 and F are the same as in eqn (3). The values of Kb and n were determined from intercept and slope, respectively, as log{(F0 − F)/F versus log[compound]} plots.
The thermodynamic parameters such as the change in enthalpy (ΔH) and change in entropy (ΔS) were determined by following the van't Hoff eqn (5):5 [drawing 5] R and T denote the gas constant and absolute temperature, respectively.
The change in free energy (ΔG) for various temperatures was determined by the following eqn (6):6 ΔG = ΔH − TΔS

[4] = biological target: T1, human serum albumin (HSA); assay: Excited-state fluorescence lifetime of HSA; assay type: binding; conditions: compound 7 μM
Experimental: A fluorescence lifetime experiment was performed to discover the quenching mechanism of compounds 12 and 13 for interactions with HSA. The decay lifetime (τ) generally remains unaltered in ground state quenching while it gets changed in excited state quenching.[46,47] The fluorescence lifetime spectrum of HSA (7 μM) was performed upon increasing concentrations of compounds 12 and 13 (0–70 μM) (Fig. S65 ^†). […] Therefore, it can conclude that the fluorescence quenching of HSA by compounds 12 and 13 was characterized as a static quenching and thus formed a stable complex with HSA at the ground state.
Time-resolved fluorescence was recorded by taking a fixed amount of HSA (10 μM) with incremental additions of compounds (12 and 13) ([…]) by maintaining the ratio of HSA : compound = 1 : 0, 1 : 1, 1 : 5 and 1 : 10. The spectra were recorded at 345 nm emission wavelength in phosphate buffer of pH 7.4 at 298 K. To determine the average fluorescence lifetime (τ), the following eqn (7) was used.7 τ = ∑τiαiwhere τi and αi denote decay time and relative amplitude, respectively.

[5] = biological target: T1, human serum albumin (HSA); assay: HSA fluorescence quenching (Stern–Volmer, modified Stern–Volmer, van't Hoff); assay type: binding; conditions: 308 K
[6] = biological target: T1, human serum albumin (HSA); assay: Excited-state fluorescence lifetime of HSA; assay type: binding

T1 sequence (P02768 25-609): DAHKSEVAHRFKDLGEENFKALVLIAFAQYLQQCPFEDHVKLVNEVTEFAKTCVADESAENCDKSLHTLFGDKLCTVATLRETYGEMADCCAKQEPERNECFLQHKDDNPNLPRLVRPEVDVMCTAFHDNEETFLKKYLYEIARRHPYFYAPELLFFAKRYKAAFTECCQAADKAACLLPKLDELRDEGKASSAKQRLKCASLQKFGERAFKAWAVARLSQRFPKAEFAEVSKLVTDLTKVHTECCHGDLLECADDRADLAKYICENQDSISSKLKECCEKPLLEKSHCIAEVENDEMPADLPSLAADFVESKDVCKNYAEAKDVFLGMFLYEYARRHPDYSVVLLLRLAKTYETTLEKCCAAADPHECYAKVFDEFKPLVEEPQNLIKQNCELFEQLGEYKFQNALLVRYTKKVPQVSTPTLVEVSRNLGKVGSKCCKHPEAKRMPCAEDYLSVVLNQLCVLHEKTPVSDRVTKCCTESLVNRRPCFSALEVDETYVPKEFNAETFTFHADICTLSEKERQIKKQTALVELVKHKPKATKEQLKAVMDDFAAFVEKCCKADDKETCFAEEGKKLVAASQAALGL

## C#CCN1C(=O)c2cccc3c(-c4ccc5c(c4)c(-c4nc6ccccc6s4)cn5CC=C)ccc(c23)C1=O [Compound 13, 6-(1-Allyl-3-(benzo[d]thiazol-2-yl)-1H-indol-5-yl)-2-(prop-2-yn-1-yl)-1H-benzo[de]isoquinoline-1,3(2H)-dione]
[1]
  IC50: 3.49 ± 0.12 µM
[2]
  IC50: 3.64 ± 0.19 µM
[3]; 298 K
  K SV (Stern–Volmer quenching constant): 2.58 10^6 M^−1
  K q (bimolecular quenching rate constant): 2.58 10^14 M^−1 s^−1
  n (average number of binding sites): 1.17
  ΔG of HSA binding: -8.37 kJ/M
  Kd: 0.662 µM
[3]; 308 K
  Kd: 2.78 µM
[3]; 318 K
  K SV (Stern–Volmer quenching constant): 0.30 10^6 M^−1
  K q (bimolecular quenching rate constant): 0.30 10^14 M^−1 s^−1
  n (average number of binding sites): 1.00
  ΔG of HSA binding: -7.49 kJ/M
  Kd: 6.67 µM
[3]
  quenching of emission of HSA at 347 nm: 90–95%
  ΔH of HSA binding: -21.41 kJ/M
  ΔS of HSA binding: −43.76 J M^−1 K^−1
[4]
  α 1 of HSA fluorescence decay: 0.41
  α 2 of HSA fluorescence decay: 0.23
  α 3 of HSA fluorescence decay: 0.36
  τ 3 of HSA fluorescence decay: 0.84 ns
  τ (average fluorescence lifetime of HSA): 3.25 ns
other
  melting point: 282 to 285 °C
[5]
  K SV (Stern–Volmer quenching constant): 2.38 10^6 M^−1
  K q (bimolecular quenching rate constant): 2.38 10^14 M^−1 s^−1
  n (average number of binding sites): 1.07
  ΔG of HSA binding: -7.93 kJ/M
[6]; compound 7 μM
  τ 1 of HSA fluorescence decay: 3.19 ns
  τ 2 of HSA fluorescence decay: 7.17 ns
[6]; compound 35 μM
  α 1 of HSA fluorescence decay: 0.39
  α 2 of HSA fluorescence decay: 0.24
  α 3 of HSA fluorescence decay: 0.37
  τ 1 of HSA fluorescence decay: 3.12 ns
  τ 2 of HSA fluorescence decay: 6.97 ns
  τ 3 of HSA fluorescence decay: 0.85 ns
  τ (average fluorescence lifetime of HSA): 3.19 ns
[6]; compound 70 μM
  α 1 of HSA fluorescence decay: 0.39
  α 2 of HSA fluorescence decay: 0.19
  α 3 of HSA fluorescence decay: 0.41
  τ 1 of HSA fluorescence decay: 3.36 ns
  τ 2 of HSA fluorescence decay: 7.25 ns
  τ 3 of HSA fluorescence decay: 0.86 ns
  τ (average fluorescence lifetime of HSA): 3.08 ns

## C=CCn1cc(-c2nc3ccccc3s2)c2cc(-c3ccc4c5c(cccc35)C(=O)N(CCO)C4=O)ccc21 [Compound 12, 6-(1-Allyl-3-(benzo[d]thiazol-2-yl)-1H-indol-5-yl)-2-(2-hydroxyethyl)-1H-benzo[de]isoquinoline-1,3(2H)-dione]
[1]
  IC50: 3.81 ± 0.19 µM
[2]
  IC50: 3.76 ± 0.2 µM
[3]; 298 K
  K SV (Stern–Volmer quenching constant): 10.46 10^6 M^−1
  K q (bimolecular quenching rate constant): 10.46 10^14 M^−1 s^−1
  n (average number of binding sites): 1.32
  ΔG of HSA binding: -9.27 kJ/M
  Kd: 0.136 µM
[3]; 308 K
  Kd: 0.658 µM
[3]; 318 K
  K SV (Stern–Volmer quenching constant): 1.27 10^6 M^−1
  K q (bimolecular quenching rate constant): 1.27 10^14 M^−1 s^−1
  n (average number of binding sites): 1.30
  ΔG of HSA binding: -8.46 kJ/M
  Kd: 1.19 µM
[3]
  quenching of emission of HSA at 347 nm: 90–95%
  ΔH of HSA binding: -21.32 kJ/M
  ΔS of HSA binding: −40.44 J M^−1 K^−1
[4]
  α 1 of HSA fluorescence decay: 0.42
  α 2 of HSA fluorescence decay: 0.20
  α 3 of HSA fluorescence decay: 0.38
  τ 3 of HSA fluorescence decay: 0.80 ns
  τ (average fluorescence lifetime of HSA): 3.13 ns
other
  melting point: 292 to 295 °C
[5]
  K SV (Stern–Volmer quenching constant): 5.19 10^6 M^−1
  K q (bimolecular quenching rate constant): 5.19 10^14 M^−1 s^−1
  n (average number of binding sites): 1.17
  ΔG of HSA binding: -8.87 kJ/M
[6]; compound 7 μM
  τ 1 of HSA fluorescence decay: 3.29 ns
  τ 2 of HSA fluorescence decay: 7.32 ns
[6]; compound 35 μM
  α 1 of HSA fluorescence decay: 0.41
  α 2 of HSA fluorescence decay: 0.18
  α 3 of HSA fluorescence decay: 0.40
  τ 1 of HSA fluorescence decay: 3.37 ns
  τ 2 of HSA fluorescence decay: 7.34 ns
  τ 3 of HSA fluorescence decay: 0.86 ns
  τ (average fluorescence lifetime of HSA): 3.09 ns
[6]; compound 70 μM
  α 1 of HSA fluorescence decay: 0.39
  α 2 of HSA fluorescence decay: 0.20
  α 3 of HSA fluorescence decay: 0.41
  τ 1 of HSA fluorescence decay: 3.14 ns
  τ 2 of HSA fluorescence decay: 7.03 ns
  τ 3 of HSA fluorescence decay: 0.80 ns
  τ (average fluorescence lifetime of HSA): 2.97 ns
